The values that follow come from patent US7077859B2, “Apparatus and methods for variably controlled substance delivery from implanted prostheses” (Avantec Vascular Corporation, priority 2000, dated 2006).

Series [1] deals with porcine smooth muscle cell cultures. In words: Thymidine incorporation (proliferation) in porcine smooth muscle cell cultures. The class given is cell-based. The settings on record: for IC50: Sus scrofa, amount of incorporated thymidine, concentrations 0.003-156 micromolar, FIGS. 20A-B, read-out: IC50 (concentration at which 50% of the cells are prevented from proliferating). The procedure: In order to assess the effect of therapeutic capable agents of the present invention on cell cultures, samples of 5 sets of therapeutic capable agents, as listed below, in varying concentrations were prepared and added to different groups of porcine smooth muscle cell cultures according to standard procedures. Set A, B, C, D, and E corresponded to therapeutic capable agent sets: Mycophenolic acid & Dexamethasone; Mycophenolic acid & Triptolide; Wortmannin and Methotrexate; Triptolide; Mycophenolate Mofetil; respectively. The amount of incorporated thymidine for the different samples of varying concentrations (0.003, 0.031, 0.31, 1.6, and 3.1 micromolar) was measured.
In another group of therapeutic capable agents, the amount of incorporated thymidine for samples of varying concentrations (0.003, 0.031, 0.31, 1.6, 3.1, 31, and 156 micromolar) was measured.
(Incorporation of labelled thymidine or its analogues reports DNA synthesis.)

Series [2] in a line: Half life of mycophenolic acid bound to BSA (MPA-BSA), assayed by liquid chromatography. The format is in vitro ADME. From the text: The MPA-BSA has an increases half time (as measured by assaying methods such as liquid chromotography) as compared to mycophenolic acid alone and as shown in the table below: […]

`COc1c(C)c2c(c(O)c1C/C=C(\C)CCC(=O)OCCN1CCOCC1)C(=O)OC2` [Mycophenolate Mofetil]: in series [1] (porcine smooth muscle cell cultures, 0.003-3.1 micromolar, FIG. 19E), the “Effectiveness on cell proliferation (incorporated thymidine)” value is listed as “may not be as effective in the absence of a bio-condition”.

As to `COc1c(C)c2c(c(O)c1C/C=C(\C)CCC(=O)O)C(=O)OC2` [Mycophenolic acid, mycophenolic acid], in the series with cell cultures, the Cell death result is “did not lead to significant cell death”. Moreover, the IC50 in series [1] is 1000 nM.

As for `C[C@@H]1C[C@H]2[C@@H]3CCC4=CC(=O)C=C[C@]4(C)[C@@]3(F)[C@@H](O)C[C@]2(C)[C@@]1(O)C(=O)CO` [Dexamethasone], the Cell death result in the series on cell cultures is recorded as “did not lead to significant cell death”.

Turning to `CC(C)[C@]12O[C@H]1[C@@H]1O[C@]13[C@]1(O[C@H]1C[C@H]1C4=C(CC[C@@]13C)C(=O)OC4)[C@@H]2O` [Triptolide], in the series with cell cultures, the Cell death result is listed as “did not lead to significant cell death”.

For the compound `C[C@H]1C[C@@H]2[C@H]([C@@H](O)C[C@@]3(C)[C@H]2CC[C@]3(O)C(=O)CO)[C@@]2(C)C=CC(=O)C=C12` [Methylprednisolone, methylprednisolone], the IC50 in series [1] came out at 1000 nM.

For the compound “MPA-BSA: mycophenolic acid (MPA) bound to Bovine Serum Albumin disposed adjacent the rate-controlling element, forming a complex”, the “Half Life (T)” value was 1.27 h in series [2] (Blood or Tissue BSA Concentration 1%), 2.02 h in series [2] (Blood or Tissue BSA Concentration 2%), 6.07 h in series [2] (Blood or Tissue BSA Concentration 4%) and 32.07 h in series [2] (Blood or Tissue BSA Concentration 6%). For the same compound, in series [2] (metabolism to glucuronide derivative), the “Stability of the complex compared to mycophenolic acid alone” value is reported as “more stable than mycophenolic acid alone”.

In the case of `CN(Cc1cnc2nc(N)nc(N)c2n1)c1ccc(C(=O)N[C@@H](CCC(=O)O)C(=O)O)cc1` [Methotrexate], the Cell death entry with cell cultures is listed as “did not lead to significant cell death”.
